Experimental data from ChEMBL document CHEMBL4257462, “Benzisoxazole: a privileged scaffold for medicinal chemistry” (Medchemcomm, 2017).
≈ marks a conversion by molar mass, not a printed value.

What was measured:
[1] = system: Mycobacterium tuberculosis; assay: Antimycobacterial activity against Mycobacterium tuberculosis H37Rv; assay type: functional
[2] = target: D(2) dopamine receptor (Rattus norvegicus, UniProt P61169); assay: Displacement of [3H]methylspiperone from D2 receptor in rat striatal membranes; assay type: cell membranes, Striatum, Membrane
Chain of D(2) dopamine receptor (P61169 whole entry): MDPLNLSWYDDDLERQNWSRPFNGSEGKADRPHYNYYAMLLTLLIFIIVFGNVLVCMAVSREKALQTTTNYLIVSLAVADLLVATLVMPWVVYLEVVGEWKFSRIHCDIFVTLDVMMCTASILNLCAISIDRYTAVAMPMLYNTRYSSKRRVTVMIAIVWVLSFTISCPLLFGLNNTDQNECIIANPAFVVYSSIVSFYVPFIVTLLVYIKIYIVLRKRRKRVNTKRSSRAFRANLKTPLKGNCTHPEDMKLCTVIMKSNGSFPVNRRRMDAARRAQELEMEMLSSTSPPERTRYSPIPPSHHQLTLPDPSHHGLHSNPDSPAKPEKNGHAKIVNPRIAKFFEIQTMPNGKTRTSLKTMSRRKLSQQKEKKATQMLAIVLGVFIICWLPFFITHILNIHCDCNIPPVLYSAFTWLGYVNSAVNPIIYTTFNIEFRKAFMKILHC

[3] = target: 5-hydroxytryptamine receptor 2A (Rattus norvegicus, UniProt P14842); assay: Displacement of [3H]ketanserin from 5-HT2A receptor in rat frontal cortex membranes; assay type: cell membranes, Membrane
Chain of 5-hydroxytryptamine receptor 2A (P14842 whole entry): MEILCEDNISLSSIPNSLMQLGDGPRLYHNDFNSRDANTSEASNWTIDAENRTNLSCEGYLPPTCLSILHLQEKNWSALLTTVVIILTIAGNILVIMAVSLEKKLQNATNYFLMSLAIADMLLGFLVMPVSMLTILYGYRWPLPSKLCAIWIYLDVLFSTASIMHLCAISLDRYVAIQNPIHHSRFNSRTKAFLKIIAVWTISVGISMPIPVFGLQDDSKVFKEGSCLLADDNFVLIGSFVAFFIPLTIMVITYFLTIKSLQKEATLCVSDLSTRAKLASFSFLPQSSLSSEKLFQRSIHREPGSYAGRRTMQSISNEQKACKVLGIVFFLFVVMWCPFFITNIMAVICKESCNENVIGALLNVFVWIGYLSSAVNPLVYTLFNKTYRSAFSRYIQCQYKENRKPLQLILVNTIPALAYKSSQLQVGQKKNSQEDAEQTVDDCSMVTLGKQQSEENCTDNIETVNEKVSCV

[4] = system: Geotrichum candidum; assay: Antimicrobial activity against Geotrichum candidum; assay type: functional
[5] = system: HepG2; assay: Growth inhibition of human HepG2 cells after 24 hrs by MTT assay relative to control; assay type: functional
[6] = target: Acetylcholinesterase (Electrophorus electricus, UniProt O42275); assay: Inhibition of electric eel AChE
Chain of Acetylcholinesterase (Electrophorus electricus, UniProt O42275) (O42275 whole entry): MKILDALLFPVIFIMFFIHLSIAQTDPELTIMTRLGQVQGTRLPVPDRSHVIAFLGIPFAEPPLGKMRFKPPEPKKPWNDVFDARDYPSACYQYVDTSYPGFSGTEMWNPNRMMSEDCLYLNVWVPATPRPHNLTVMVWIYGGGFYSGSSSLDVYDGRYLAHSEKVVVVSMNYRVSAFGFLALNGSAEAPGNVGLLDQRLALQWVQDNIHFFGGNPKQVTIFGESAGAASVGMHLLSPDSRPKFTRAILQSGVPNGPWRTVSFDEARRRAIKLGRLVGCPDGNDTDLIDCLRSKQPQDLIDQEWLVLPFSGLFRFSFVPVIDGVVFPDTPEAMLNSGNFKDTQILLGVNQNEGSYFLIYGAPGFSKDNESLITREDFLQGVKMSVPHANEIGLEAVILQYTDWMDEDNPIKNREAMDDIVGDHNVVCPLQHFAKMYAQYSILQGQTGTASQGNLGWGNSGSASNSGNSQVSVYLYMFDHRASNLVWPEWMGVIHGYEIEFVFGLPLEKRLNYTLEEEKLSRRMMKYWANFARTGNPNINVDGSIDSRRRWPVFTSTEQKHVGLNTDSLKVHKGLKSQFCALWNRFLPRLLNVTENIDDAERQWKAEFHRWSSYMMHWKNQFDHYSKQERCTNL

[7] = target: Acetylcholinesterase (Homo sapiens, UniProt P22303); assay: Inhibition of human serum AChE
Chain of Acetylcholinesterase (Homo sapiens, UniProt P22303) (P22303 whole entry): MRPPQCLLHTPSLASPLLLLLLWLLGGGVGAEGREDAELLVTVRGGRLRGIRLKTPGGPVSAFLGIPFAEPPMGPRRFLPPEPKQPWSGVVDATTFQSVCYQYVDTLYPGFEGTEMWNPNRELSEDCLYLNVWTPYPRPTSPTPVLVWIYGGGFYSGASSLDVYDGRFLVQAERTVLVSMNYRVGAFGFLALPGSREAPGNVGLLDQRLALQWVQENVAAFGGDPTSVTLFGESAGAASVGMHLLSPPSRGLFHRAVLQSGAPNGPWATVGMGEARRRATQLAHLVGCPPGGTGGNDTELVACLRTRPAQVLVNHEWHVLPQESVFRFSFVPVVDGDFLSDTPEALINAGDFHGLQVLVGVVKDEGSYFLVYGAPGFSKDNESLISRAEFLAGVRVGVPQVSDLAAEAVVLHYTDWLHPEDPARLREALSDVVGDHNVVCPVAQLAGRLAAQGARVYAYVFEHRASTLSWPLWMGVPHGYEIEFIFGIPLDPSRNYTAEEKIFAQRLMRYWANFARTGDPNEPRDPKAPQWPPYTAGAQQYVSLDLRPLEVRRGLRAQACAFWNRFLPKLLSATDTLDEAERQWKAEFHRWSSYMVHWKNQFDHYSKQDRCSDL

[8] = target: T1, Acetylcholinesterase (Rattus norvegicus, UniProt P37136); assay: Inhibition of rat brain AChE
T1 sequence (P37136 whole entry): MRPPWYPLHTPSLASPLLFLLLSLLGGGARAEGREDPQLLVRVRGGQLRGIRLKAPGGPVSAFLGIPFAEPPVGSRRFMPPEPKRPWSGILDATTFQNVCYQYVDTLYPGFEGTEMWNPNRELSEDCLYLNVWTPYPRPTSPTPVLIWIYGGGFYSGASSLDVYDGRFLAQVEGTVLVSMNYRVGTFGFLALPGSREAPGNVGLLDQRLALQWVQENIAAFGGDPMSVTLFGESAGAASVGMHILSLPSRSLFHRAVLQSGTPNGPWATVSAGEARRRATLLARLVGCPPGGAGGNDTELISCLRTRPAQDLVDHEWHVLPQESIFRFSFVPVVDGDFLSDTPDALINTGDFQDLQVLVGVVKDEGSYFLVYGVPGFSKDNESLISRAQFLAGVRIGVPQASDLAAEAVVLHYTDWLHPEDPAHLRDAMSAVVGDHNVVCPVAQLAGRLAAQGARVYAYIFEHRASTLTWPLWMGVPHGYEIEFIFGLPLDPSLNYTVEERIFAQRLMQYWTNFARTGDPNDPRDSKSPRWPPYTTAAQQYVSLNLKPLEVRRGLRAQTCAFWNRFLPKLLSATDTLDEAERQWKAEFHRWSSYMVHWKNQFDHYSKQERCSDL

[9] = Inhibition of urease (unknown origin)

Compound: O=S(=O)(c1ccccc1)N1CCN(c2noc3ccccc23)CC1
- MIC [1]: 3.25 µg/mL (≈ 9.46 µM)

Compound: Cc1ccc(S(=O)(=O)N2CCN(c3noc4cccc(Cl)c34)CC2)cc1
- MIC [1]: 6.25 µg/mL (≈ 15.9 µM)

Compound: O=C1c2ccc(OCCCN3CCC(c4noc5cc(F)ccc45)CC3)cc2OCC1CO (centres undefined)
- IC50 [2]: 17 nM
- IC50 [3]: 6.2 nM

Compound: O=C(c1ccccc1)N(C(=O)c1ccccc1)c1onc2ccccc12
- MIC [4]: 584 µM (≈ 200 µg/mL)

Compound: O=C(c1c(F)cccc1F)N1CCC(c2noc3cc(F)ccc23)CC1
- growth inhibition (GI) [5]: 42.06%

Compound: Fc1ccc2c(C3CCN(CCN4CCCC4)CC3)noc2c1
- IC50 [6]: 2510 nM
- IC50 [7]: 3290 nM
- IC50 [8]: 5300 nM

Compound: O=C(N1CCCC1)N1CCC(c2noc3cc(F)ccc23)CC1
- growth inhibition (GI) [5]: 39.19%

Compound: CCCN1C(=O)C(C)c2cc(C(=O)CN3CCN(c4noc5cc(Cl)ccc45)CC3)ccc21 (centres undefined)
- MIC [1]: 3.12 µg/mL (≈ 6.68 µM)

Compound: COc1ccc(NC(=S)NC(Cc2ccccc2)C(=O)N2CCCC2C(=O)N2CCC(c3noc4cc(F)ccc34)CC2)cc1 (centres undefined)
- IC50 [9]: 4900 nM

Compound: O=C(c1ccccc1)c1onc2ccccc12
- MIC [4]: 44.8 µM (≈ 10 µg/mL)

Compound: Fc1ccc2c(C3CCN(CCN4CCCCC4)CC3)noc2c1
- IC50 [6]: 1500 nM
- IC50 [7]: 2220 nM
- IC50 [8]: 1290 nM

Compound: CCCN1C(=O)Cc2cc(C(=O)CN3CCN(c4noc5ccccc45)CC3)ccc21
- MIC [1]: 3.12 µg/mL (≈ 7.46 µM)

Compound: O=C(Nc1ccccc1)c1onc2ccccc12
- MIC [4]: 840 µM (≈ 200 µg/mL)

Compound: O=C(N1CCOCC1)N1CCC(c2noc3cc(F)ccc23)CC1
- growth inhibition (GI) [5]: 37.75%
